Results reported in patent EP2058306A1, “Heteroaryl-substituted 2-pyridinyl-methylamine derivatives” (SCHWARZ PHARMA AG, priority 2007, dated 2009).
Like-named read-outs stand apart in the source and are kept apart here.

Columns and labels:
5-HT1A = target: T1, 5-HT1A (Sus scrofa, UniProt A0A4X1UTF5); experiment: radioligand binding assay, serotonin 5-HT1A receptor, [3H]WAY 100635
T1 construct: membrane preparations from porcine cortex; from tissue; host or cells: porcine cortex
T1 sequence (A0A4X1UTF5 1-422): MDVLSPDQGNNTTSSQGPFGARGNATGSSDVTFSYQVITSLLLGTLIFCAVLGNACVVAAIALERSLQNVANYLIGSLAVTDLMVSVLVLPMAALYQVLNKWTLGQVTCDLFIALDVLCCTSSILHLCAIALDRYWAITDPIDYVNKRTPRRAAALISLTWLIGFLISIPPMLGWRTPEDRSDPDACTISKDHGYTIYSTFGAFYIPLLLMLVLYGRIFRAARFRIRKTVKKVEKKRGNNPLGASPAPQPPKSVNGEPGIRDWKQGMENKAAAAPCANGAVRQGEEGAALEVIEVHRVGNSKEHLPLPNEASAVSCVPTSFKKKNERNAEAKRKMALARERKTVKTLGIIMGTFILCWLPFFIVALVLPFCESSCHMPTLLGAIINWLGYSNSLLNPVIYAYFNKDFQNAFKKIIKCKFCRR
Experimental: (§1) The investigation of receptor binding to the serotonin and adrenergic receptors was done according to a published procedure (Heindl, C. et al., Tetrahedron: Asymmetry (2003), 14, 3141-3152). In detail, for the determination of the binding properties to serotonin receptors membrane preparations from porcine cortex was incubated with the 5-HT1A selective radioligand [^3H]WAY 100635 or with the 5-HT2 selective compound [^3H]ketanserin. The measurement of alpha-1 and alpha-2 receptor binding was achieved when utilizing porcine cortical membranes and the selective radioligands [^3H]prazosin (for alpha-1) and [^3H]RX821002 in an assay similar to that described above.
(§2) The results of the binding experiments are summarized in Table 1 as mean values of two to five individual experiments each done in triplicate and expressed as Ki values in nM.

5-HT2 = target: T2, 5-HT2 (Sus scrofa, UniProt P50129); experiment: radioligand binding assay, serotonin 5-HT2 receptor, [3H]ketanserin; parameters: species or system porcine
T2 construct: membrane preparations from porcine cortex; from tissue; host or cells: porcine cortex
T2 sequence (P50129 whole entry): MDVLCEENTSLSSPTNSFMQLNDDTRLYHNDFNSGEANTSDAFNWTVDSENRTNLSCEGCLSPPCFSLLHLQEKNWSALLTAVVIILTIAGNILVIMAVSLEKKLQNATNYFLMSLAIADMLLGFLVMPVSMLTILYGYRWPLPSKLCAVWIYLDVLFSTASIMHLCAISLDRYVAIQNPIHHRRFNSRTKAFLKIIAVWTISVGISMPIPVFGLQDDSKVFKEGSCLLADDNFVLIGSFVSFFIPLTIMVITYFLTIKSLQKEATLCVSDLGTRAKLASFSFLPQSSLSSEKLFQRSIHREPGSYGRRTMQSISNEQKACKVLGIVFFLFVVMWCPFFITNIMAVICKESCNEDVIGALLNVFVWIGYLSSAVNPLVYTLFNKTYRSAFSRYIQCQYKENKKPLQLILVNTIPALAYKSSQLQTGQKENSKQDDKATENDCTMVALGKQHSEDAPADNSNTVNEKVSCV

dopamine D1 receptor = target: T3, dopamine D1 receptor (Sus scrofa, UniProt P50130); experiment: radioligand binding assay, dopamine D1 receptor, [3H]SCH 23390
T3 construct: native membrane preparations from porcine striatum; from tissue; host or cells: porcine striatum
T3 sequence (P50130 whole entry): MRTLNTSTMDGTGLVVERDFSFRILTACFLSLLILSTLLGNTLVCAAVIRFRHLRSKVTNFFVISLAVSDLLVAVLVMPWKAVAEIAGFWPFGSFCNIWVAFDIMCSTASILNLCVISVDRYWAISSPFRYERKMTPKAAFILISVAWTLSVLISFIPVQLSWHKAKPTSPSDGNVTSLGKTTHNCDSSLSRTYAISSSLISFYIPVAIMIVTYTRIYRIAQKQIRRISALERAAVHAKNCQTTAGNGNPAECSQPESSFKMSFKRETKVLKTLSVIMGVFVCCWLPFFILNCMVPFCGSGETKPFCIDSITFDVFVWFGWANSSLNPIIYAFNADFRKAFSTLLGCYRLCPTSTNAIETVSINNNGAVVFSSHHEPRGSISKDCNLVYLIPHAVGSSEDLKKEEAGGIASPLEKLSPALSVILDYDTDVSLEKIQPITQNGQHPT
Source text: (§3) Biological activity of the compounds has been determined in radioligand binding assays. These experiments have been done according to methods which are described in literature (Hübner, H. et al., J. Med. Chem. (2000), 43, 7562). For the determination of binding affinity to the receptors of the dopamine D2 family membranes were established carrying the human D2long, D2short, D3 or D4.4 receptor subtype stably expressed in Chinese hamster ovary cell lines. In principle, the binding experiments started when incubating an appropriate amount of membrane with the radioligand [^3H]spiperone and the particular test compounds used in a wide range of different concentrations from subnanomolar up to micromolar ones. In the same way, binding affinities of the test compounds to the dopamine D1 receptor were determined when using native membrane preparations from porcine striatum and the D1 selective radioligand [^3H]SCH 23390.
as §2

human D2long, D2short = human D2long, D2short (Homo sapiens, UniProt P14416); experiment: biochemical; assay type: binding
Chain of human D2long, D2short (P14416 whole entry): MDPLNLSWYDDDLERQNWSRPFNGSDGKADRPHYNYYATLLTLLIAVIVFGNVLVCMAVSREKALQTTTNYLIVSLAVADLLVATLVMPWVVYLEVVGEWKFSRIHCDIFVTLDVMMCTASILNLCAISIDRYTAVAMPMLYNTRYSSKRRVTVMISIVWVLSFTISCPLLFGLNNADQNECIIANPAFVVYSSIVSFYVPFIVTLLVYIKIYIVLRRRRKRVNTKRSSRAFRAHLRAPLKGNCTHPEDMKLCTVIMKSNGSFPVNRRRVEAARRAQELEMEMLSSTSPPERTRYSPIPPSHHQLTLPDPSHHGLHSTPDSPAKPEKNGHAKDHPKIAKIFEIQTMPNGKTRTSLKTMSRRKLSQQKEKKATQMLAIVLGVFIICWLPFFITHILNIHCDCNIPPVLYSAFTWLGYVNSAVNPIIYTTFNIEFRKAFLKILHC
Experimental: as §3, with “These” for “Biological activity of the compounds has been determined in radioligand binding assays. These”, “ones.” for “ones. In the same way, binding affinities of the test compounds to the dopamine D1 receptor were determined when using native membrane preparations from porcine striatum and the D1 selective radioligand [^3H]SCH 23390.”

human D3 = human D3 (Homo sapiens, UniProt P35462); experiment: radioligand binding assay, dopamine D3 receptor, [3H]spiperone
Chain of human D3 (P35462 whole entry): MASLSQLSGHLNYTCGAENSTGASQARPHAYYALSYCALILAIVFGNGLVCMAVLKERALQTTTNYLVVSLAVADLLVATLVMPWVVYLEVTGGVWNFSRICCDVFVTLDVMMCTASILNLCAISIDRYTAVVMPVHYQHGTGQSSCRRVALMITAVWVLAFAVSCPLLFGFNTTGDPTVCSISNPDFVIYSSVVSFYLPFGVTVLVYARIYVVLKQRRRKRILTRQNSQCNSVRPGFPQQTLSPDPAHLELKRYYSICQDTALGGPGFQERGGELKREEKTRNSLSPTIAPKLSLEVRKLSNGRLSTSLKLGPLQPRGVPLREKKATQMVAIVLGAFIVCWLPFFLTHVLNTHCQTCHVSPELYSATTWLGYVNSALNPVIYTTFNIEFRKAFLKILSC
Experimental: as §3, with “These” for “Biological activity of the compounds has been determined in radioligand binding assays. These”, “ones.” for “ones. In the same way, binding affinities of the test compounds to the dopamine D1 receptor were determined when using native membrane preparations from porcine striatum and the D1 selective radioligand [^3H]SCH 23390.”

human D4.4 = target: T4, human D4.4 (Homo sapiens, UniProt P21917); experiment: radioligand binding assay, dopamine D4.4 receptor, [3H]spiperone
T4 sequence (P21917 1-419): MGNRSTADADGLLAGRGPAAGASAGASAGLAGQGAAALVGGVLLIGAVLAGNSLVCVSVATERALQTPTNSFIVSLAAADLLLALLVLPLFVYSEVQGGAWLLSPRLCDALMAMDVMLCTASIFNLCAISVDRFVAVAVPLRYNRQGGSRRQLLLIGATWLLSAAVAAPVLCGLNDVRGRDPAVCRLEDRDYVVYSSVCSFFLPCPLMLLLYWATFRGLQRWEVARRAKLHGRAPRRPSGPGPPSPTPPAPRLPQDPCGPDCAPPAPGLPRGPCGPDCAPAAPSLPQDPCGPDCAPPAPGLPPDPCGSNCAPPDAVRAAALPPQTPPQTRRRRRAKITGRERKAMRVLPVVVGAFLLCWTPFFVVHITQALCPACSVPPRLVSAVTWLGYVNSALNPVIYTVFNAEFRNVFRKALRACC
Source text: as §3, §2

alpha-1 = experiment: radioligand binding assay, adrenergic alpha-1 receptor, [3H]prazosin; conditions: porcine cortical membranes, mean of two to five experiments in triplicate, read-out: Ki alpha1
Experimental: as §1, §2

[1] = porcine cortex membranes, mean of two to five experiments in triplicate, read-out: Ki 5-HT1a
[2] = porcine cortex membranes, [3H]ketanserin, mean of two to five experiments in triplicate, read-out: Ki 5-HT2
[3] = porcine striatum membranes, mean of two to five experiments in triplicate, read-out: Ki D1
[4] = CHO cell membranes, [3H]spiperone; mean of two to five experiments in triplicate; read-out: Ki D2
[5] = CHO cell membranes, mean of two to five experiments in triplicate, read-out: Ki D3
[6] = CHO cell membranes, mean of two to five experiments in triplicate, read-out: Ki D4.4

Structure (SMILES)	Ki (5-HT1A; [1])	Ki (5-HT2)	Ki (5-HT2; [2])	Ki (dopamine D1 receptor; [3])	Ki (human D2long, D2short; [4])	Ki (human D3; [5])	Ki (human D4.4; [6])	Ki (alpha-1)	Ki (dopamine D1 receptor; read-out: Ki D1, porcine striatum membranes, mean of two to five experiments in triplicate)	Ki (human D2long, D2short; read-out: Ki D2; CHO cell membranes, [3H]spiperone; mean of two to five experiments in triplicate)	Ki (human D3; read-out: Ki D3, CHO cell membranes, mean of two to five experiments in triplicate)	Ki (human D4.4; read-out: Ki D4.4, CHO cell membranes, mean of two to five experiments in triplicate)	Ki (5-HT1A; read-out: Ki 5-HT1a, porcine cortex membranes, mean of two to five experiments in triplicate)
Cc1ccc(CNCC2(F)CCN(C(=O)c3ccc(F)s3)CC2)nc1 [Example E2]	< 0.05 µM	> 5 µM											
Cc1ccc(CNCC2(F)CCN(C(=O)c3cc(Br)c(Br)s3)CC2)nc1 [Example E8, 4,5-Dibromothien-2-yl-[4-fluoro-4-[[(5-methylpyridin-2-ylmethyl)amino]methyl]-piperidin-1-yl]-methanone]	< 0.05 µM		> 5 µM										
CSc1ccc(C(=O)N2CCC(F)(CNCc3ccc(C)cn3)CC2)s1 [Example E12, [4-Fluoro-4-[[(5-methylpyridin-2-ylmethyl)amino]methyl]piperidin-1-yl]-5-mothylthiothien-2-yl-methanone]	< 0.05 µM	> 5 µM		> 5 µM	> 5 µM	> 5 µM	0.501 to 5 µM	0.501 to 5 µM					
Cc1ccc(CNCC2(F)CCN(C(=O)c3ccc(-c4ccccc4)s3)CC2)nc1 [Example E13, [4-Fluoro-4-[[(5-methylpyridin-2-ylmethyl)amino]methyl]piperidin-1-yl]-5-phenylthien-2-yl-mathanone]	0.05 to 0.5 µM	0.501 to 5 µM		> 5 µM	0.501 to 5 µM	0.501 to 5 µM	> 5 µM	0.501 to 5 µM					
Cc1ccc(CNCC2(F)CCN(C(=O)c3ccc(-c4ccccn4)s3)CC2)nc1 [Example E14, [4-Fluoro-4-[[(5-methylpyridin-2-ylmethyl)amino]methyl]piperidin-1-yl]-5-pyridin-2-ylthien-2-yl-methanone]	0.05 to 0.5 µM		0.501 to 5 µM	> 5 µM	> 5 µM	> 5 µM	> 5 µM	0.501 to 5 µM					
Cc1ccc(CNCC2(F)CCN(C(=O)c3ccc(-c4cccs4)s3)CC2)nc1 [Example E15, [2,2']Bithien-5-yl-[4-fluoro-4-[[(5-methylpyridin-2-ylmethyl)amino]methyl]piperidin-1-yl]-methanone]	0.05 to 0.5 µM	0.501 to 5 µM		> 5 µM	> 5 µM	0.501 to 5 µM	> 5 µM	0.501 to 5 µM					
Cc1ccc(CNCC2(F)CCN(C(=O)c3ccc(-c4csc(C)n4)s3)CC2)nc1 [Example E16, [4-Fluoro-4-[[(5-methylpyridin-2-ylmethyl)amino]methyl]piperidin-1-yl]-5-(2-methylthiazol-4-yl)thien-2-yl-methanone]	0.05 to 0.5 µM		> 5 µM	> 5 µM	> 5 µM	0.501 to 5 µM	> 5 µM	0.501 to 5 µM					
Cc1ccc(CNCC2(F)CCN(C(=O)c3sccc3-n3cccc3)CC2)nc1 [Example E17, [4-Fluoro-4-[[(5-methylpyridin-2-ylmethyl)amino]methyl]piperidin-1-yl]-3-pyrrol-1-ylthion-2-yl-methanone]	0.05 to 0.5 µM	> 5 µM		> 5 µM	> 5 µM	> 5 µM	0.501 to 5 µM	0.501 to 5 µM					
Cc1ccc(CNCC2(F)CCN(C(=O)c3ccsc3Br)CC2)nc1 [Example E19, 2-Bromothien-3-yl-[4-fluoro-4-[[(5-methylpyridin-2-ylmethyl)amino]methyl]piperidin-1-yl]-methanone]	< 0.05 µM		> 5 µM	> 5 µM	> 5 µM	> 5 µM	0.501 to 5 µM	0.501 to 5 µM					
Cc1ccc(CNCC2(F)CCN(C(=O)c3coc4ccccc34)CC2)nc1 [Example E36]									> 5 µM	> 5 µM	> 5 µM	0.501 to 5 µM	< 0.05 µM

The next lines start with results.

Ki (5-HT1A; [1])	Ki (5-HT2)	Ki (5-HT2; [2])	Ki (dopamine D1 receptor; [3])	Ki (human D2long, D2short; [4])	Ki (human D3; [5])	Ki (human D4.4; [6])	Ki (alpha-1)	Structure (SMILES)	Ki (dopamine D1 receptor; read-out: Ki D1, porcine striatum membranes, mean of two to five experiments in triplicate)	Ki (human D2long, D2short; read-out: Ki D2; CHO cell membranes, [3H]spiperone; mean of two to five experiments in triplicate)	Ki (human D3; read-out: Ki D3, CHO cell membranes, mean of two to five experiments in triplicate)	Ki (human D4.4; read-out: Ki D4.4, CHO cell membranes, mean of two to five experiments in triplicate)	Ki (5-HT1A; read-out: Ki 5-HT1a, porcine cortex membranes, mean of two to five experiments in triplicate)
0.05 to 0.5 µM	> 5 µM		> 5 µM	> 5 µM	> 5 µM	0.501 to 5 µM	> 5 µM	COc1cscc1C(=O)N1CCC(F)(CNCc2ccc(C)cn2)CC1 [Example E20, [4-Fluoro-4-[[(5-mothylpyridin-2-ylmothyl)amino]methyl]piperidin-1-yl]-4-methoxythien-3-yl-methanone]					
< 0.05 µM		> 5 µM	> 5 µM	> 5 µM	> 5 µM	0.501 to 5 µM	0.501 to 5 µM	COc1c(C(=O)N2CCC(F)(CNCc3ccc(C)cn3)CC2)csc1Cl [Example E21, 5-Chloro-4-methoxythien-3-yl-[4-fluoro-4-[[(5-methylpyridin-2-ylmethyl)amino]methyl]piperidin-1-yl]-methanone]					
< 0.05 µM	> 5 µM		> 5 µM	> 5 µM	> 5 µM	0.501 to 5 µM	0.501 to 5 µM	COc1c(C(=O)N2CCC(F)(CNCc3ccc(C)cn3)CC2)csc1Br [Example E22, 5-Bromo-4-methoxythion-3-yl-[4-fluoro-4-[[(5-methylpyridin-2-ylmethyl)amino]methyl]piperidin-1-yl]-methanone]					
0.05 to 0.5 µM		> 5 µM	> 5 µM	> 5 µM	> 5 µM	0.501 to 5 µM	0.501 to 5 µM	Cc1ccc(CNCC2(F)CCN(C(=O)c3cc4ccccc4s3)CC2)nc1 [Example E23, Benzo[b]thien-2-yl-[4-fluoro-4-[[(5-methyl-pyridin-2-ylmethyl)amino]methyl]-piperidin-1-yl]-methanone]					
< 0.05 µM		> 5 µM						Cc1ccc(CNCC2(F)CCN(C(=O)c3cc(Br)c(Br)o3)CC2)nc1 [Example E32, 4,5-Dibromofuran-2-yl-[4-fluoro-4-[[(5-mothylpyridin-2-ylmethyl)amino]methyl]piperidin-1-yl]-methanone]					
0.501 to 5 µM		> 5 µM						Cc1ccc(CNCC2(F)CCN(C(=O)c3ccc[nH]3)CC2)nc1 [Example E37, [4-Fluoro-4-[[(5-methylpyridin-2-ylmethyl)amino]methyl]piperidin-1-yl]-pyrrol-2-yl-methanone]					
0.501 to 5 µM	> 5 µM							Cc1ccc(CNCC2(F)CCN(C(=O)c3cc[nH]n3)CC2)nc1 [Example E38]					
